System: lymphatic endothelial cells (LEC monoculture / LEC-LMC coculture in lymphangion-chip)
Test: Lymphatic endothelial barrier function (permeability) of the lymphangion-chip after exposure to TNF-α
Assay type: cell-based
Conditions: LMCs cocultured with LECs (graph 400, FIG. 22)

Tumor Necrosis Factor Alpha (TNF-α)
lymphatic endothelial barrier function: relatively conserved

Reference: patent US20230264191A1, “SYSTEMS AND METHODS FOR FABRICATING PHYSIOLOGICALLY RELEVANT IN VITRO VESSELS” (The Texas A&M University System, priority 2022, published 2023)
